# Experiments:
# HDAC10 = target: T1, HDAC10 (Homo sapiens, UniProt Q969S8); test: HDACs enzymatic assay HDAC10; format: biochemical; details: Class IIb
# T1 construct: purchased BPS BIOSCIENCE Inc 50010
# Description: (§1) HDACs enzymatic assays were conducted according to our previous work. […] Substrates (Boc‐Lys(acetyl)‐AMC for HeLa nuclear extract, Ac‐Leu‐Gly‐Lys (Tfa)‐AMC for HDAC4, HDAC5, HDAC6, HDAC7, HDAC9, HDAC10, and HDAC11, Boc‐Lys(triflouroacetyl)‐AMC for HDAC8 and Ac‐Leu‐Gly‐Lys(acetyl)‐AMC for HDAC1, HDAC2, HDAC3) were added to the mixture. The blank group was set to no enzyme or drug but contains substrates and the control group was set to no drug but contains substrates and enzymes to each 96‐well plate. After 30 min of incubation at 37°C, the mixture was terminated with 1 mg/mL trypsin and 3 µM TSA. After another 30 min, the fluorescence intensity was measured using a Varioskan plate reader at 360/460 nm. […] The inhibition curves and IC50 values were simulated and calculated using the log(inhibitor) versus response (three parameters) mode in GraphPad Prism software.
# MDA-MB-231 xenograft = MDA-MB-231 xenograft model; format: in vivo, BALB/c-nu mice
# Description: BALB/c‐nu mice were obtained from Pengyue Co. Ltd. (Jinan, China) and were fed in laminar flow cabinets under specific pathogen‐free (SPF) conditions. With the approval of ethics committee of Shandong University, the animal experiments were conducted. To establish the MDA‐MB‐231 xenograft model, BALB/c‐nu mice (3–4 weeks old and 15–18 g body weight, male) were selected and injected subcutaneously into the armpits with 1.2 × 10^7 MDA‐MB‐231 cells. […] Body weight and tumor size were measured every 3 days during the 22‐day treatment.
# HDAC6 = target: T2, HDAC6 (Homo sapiens, UniProt Q9UBN7); test: HDACs enzymatic assay HDAC6; format: biochemical; details: Class IIb
# T2 construct: purchased BPS BIOSCIENCE Inc 50006
# T2 sequence (Q9UBN7 whole entry): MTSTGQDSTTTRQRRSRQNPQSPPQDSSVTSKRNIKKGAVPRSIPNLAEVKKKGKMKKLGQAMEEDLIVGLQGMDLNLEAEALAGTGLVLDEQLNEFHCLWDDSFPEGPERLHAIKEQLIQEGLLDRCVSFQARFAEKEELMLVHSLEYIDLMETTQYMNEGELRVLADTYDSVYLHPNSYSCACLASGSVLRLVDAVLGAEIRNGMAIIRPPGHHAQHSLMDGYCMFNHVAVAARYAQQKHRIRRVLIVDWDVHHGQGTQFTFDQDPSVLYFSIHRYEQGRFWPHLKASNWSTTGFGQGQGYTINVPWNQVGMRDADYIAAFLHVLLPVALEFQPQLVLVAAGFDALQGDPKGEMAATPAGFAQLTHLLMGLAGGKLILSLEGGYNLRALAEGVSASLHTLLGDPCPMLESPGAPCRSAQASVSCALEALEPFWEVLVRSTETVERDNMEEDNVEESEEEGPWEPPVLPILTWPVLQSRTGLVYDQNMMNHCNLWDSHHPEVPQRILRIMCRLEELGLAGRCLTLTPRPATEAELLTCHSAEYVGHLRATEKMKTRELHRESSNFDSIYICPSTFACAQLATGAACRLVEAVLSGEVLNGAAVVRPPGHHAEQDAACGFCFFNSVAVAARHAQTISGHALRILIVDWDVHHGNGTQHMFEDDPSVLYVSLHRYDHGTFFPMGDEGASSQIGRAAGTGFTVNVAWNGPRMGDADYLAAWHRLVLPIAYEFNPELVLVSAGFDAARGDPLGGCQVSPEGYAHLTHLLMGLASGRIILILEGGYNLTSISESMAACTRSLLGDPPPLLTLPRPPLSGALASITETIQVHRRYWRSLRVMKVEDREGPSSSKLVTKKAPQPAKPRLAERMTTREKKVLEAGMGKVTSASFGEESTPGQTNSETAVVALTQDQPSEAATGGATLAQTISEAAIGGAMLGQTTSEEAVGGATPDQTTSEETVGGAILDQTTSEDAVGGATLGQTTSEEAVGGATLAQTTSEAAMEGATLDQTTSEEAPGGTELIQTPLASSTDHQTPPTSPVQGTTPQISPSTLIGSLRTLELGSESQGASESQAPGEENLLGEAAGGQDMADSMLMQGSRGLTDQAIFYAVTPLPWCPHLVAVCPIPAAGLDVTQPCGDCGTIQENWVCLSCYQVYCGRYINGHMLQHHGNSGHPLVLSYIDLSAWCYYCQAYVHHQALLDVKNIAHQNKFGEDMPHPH
# Description: as §1
# HDAC2 = target: T3, HDAC2 (Homo sapiens, UniProt Q92769); test: HDACs enzymatic assay HDAC2; format: biochemical; details: Class I; mean ± SD of three
# T3 construct: purchased BPS BIOSCIENCE Inc 50052
# T3 sequence (Q92769 whole entry): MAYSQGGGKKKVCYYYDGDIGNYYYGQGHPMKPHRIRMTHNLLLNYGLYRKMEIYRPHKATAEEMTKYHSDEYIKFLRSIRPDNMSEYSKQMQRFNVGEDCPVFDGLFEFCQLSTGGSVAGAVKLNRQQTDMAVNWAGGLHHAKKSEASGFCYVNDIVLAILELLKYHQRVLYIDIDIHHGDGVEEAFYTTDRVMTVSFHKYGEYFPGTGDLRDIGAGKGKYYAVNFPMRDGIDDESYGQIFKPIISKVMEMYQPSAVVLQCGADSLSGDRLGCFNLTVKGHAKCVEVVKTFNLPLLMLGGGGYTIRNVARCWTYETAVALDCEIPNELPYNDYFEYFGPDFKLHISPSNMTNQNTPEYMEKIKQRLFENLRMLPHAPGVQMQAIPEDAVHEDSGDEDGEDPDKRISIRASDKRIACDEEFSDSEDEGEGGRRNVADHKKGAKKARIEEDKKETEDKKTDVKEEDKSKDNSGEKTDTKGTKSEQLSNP
# Description: as §1
# MDA-MB-231 cells [1] = test: EdU assay; format: cell-based, human; details: MDA-MB-231, 2 µM, 24 h
# Description: The EdU assay is performed by BeyoClick EdU kit. MDA‐MB‐231 cells were cultured in a 6‐well plate overnight. […] Following labeling, cells are fixed with 4% PFA for 15 min, washed three times with wash buffer, and permeabilized using 0.3% Triton X‐100 for 15 min. After another wash, endogenous peroxidases are blocked for 20 min. For detection, a click reaction mix (containing Biotin Azide, CuSO4, and click additive) is added and incubated for 30 min. After washing, streptavidin–HRP is applied and reacted for 30 min, followed by 5 min DAB substrate incubation. Finally, cells are washed, optionally counterstained, and imaged under a microscope.
# B16F10 syngeneic model = test: B16F10 syngeneic model; format: in vivo; details: C57BL/6J mice, HDAC inhibitors by oral gavage, anti-PD-L1 intraperitoneal, 7-day treatment
# Description: With the approval of the ethics committee of Shandong University, C57BL/6J mice were purchased from Charles River and fed in SPF conditions at the Model Animal Research Centre of Shandong University. To establish the B16F10 syngeneic model, cells in logarithmic growth phase were trypsinized with 0.25% trypsin, resuspended in sterile PBS, and adjusted to 1 × 10^6 cells/100 µL. The cell suspension (100 µL) was subcutaneously injected into the left axilla. When tumors reached to certain volume, mice were randomized (n = 5/group) and treated with Chidamide, LBH‐589, or SDFZ‐8 by oral gavage and intraperitoneal injection of anti‐PD‐L1. Tumor growth curves were plotted over a 7‐day treatment cycle. All procedures complied with AAALAC International guidelines for humane endpoint criteria.
# MC38 cells = test: PD-L1 expression in MC38 cells; format: cell-based; details: 24 h
# MDA-MB-231 cells [2] = test: Colony formation assay; format: cell-based, human; details: 2 µM, 48 h
# Description: The colony formation assay is performed by seeding 1000 MDA‐MB‐231 cells per well into 6‐well plates and allowing them to adhere overnight. […] Once colonies are visible (≥50 cells per colony), the medium is removed, and cells are gently washed with PBS, fixed with 4% paraformaldehyde for 15 min, and stained with Giemsa stain solution for 30 min. Excess stain is rinsed with water, and plates are air‐dried. Colonies are then imaged.
# HDAC1 = target: T4, HDAC1 (Homo sapiens, UniProt Q13547); test: HDACs enzymatic assay HDAC1; format: biochemical
# T4 construct: purchased BPS BIOSCIENCE INC 50051
# T4 sequence (Q13547 whole entry): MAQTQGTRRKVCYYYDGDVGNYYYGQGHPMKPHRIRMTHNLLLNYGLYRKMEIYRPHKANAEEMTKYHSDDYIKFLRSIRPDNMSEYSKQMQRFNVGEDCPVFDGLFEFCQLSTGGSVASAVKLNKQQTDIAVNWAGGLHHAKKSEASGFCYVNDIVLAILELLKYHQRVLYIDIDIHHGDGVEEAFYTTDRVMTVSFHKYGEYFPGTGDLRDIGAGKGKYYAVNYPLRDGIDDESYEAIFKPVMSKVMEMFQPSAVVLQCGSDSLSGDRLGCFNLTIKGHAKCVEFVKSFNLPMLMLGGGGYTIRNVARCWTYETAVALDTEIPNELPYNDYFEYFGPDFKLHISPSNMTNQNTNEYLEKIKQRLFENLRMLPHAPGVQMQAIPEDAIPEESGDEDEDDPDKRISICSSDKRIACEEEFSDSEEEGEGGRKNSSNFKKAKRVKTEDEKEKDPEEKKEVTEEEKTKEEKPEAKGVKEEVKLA
# Description: as §1
# MDA-MB-231 cells [3] = test: Western blotting (immunoblotting); format: cell-based, human; details: 24 h
# Text: Anti‐H3 (#13998), anticleaved Caspase‐3 (#9661) and anti‐PARP (#9542) antibody was purchased from Cell Signal Technology (CST). Anti‐Caspase‐3 (T40044) was brought from Abmart. Antitubulin antibody (ab179484) was obtained from Abcam PLC. Anti‐Bcl‐2 (F0125) and anti‐Bax (F0037) antibody were purchased from Selleck Chemicals. Anti‐GAPDH antibody (AF1186) was obtained from Beyotime Inc. The protocol of Western blotting was the same as our previous works. In brief, 2.5 × 10^5 MDA‐MB‐231 cells were treated with different drugs or DMSO (equal volume to experimental groups) for 24 h and lysed with modified RIPA buffer. The cell lysates were added to loading buffer (Beyotime #P0015L) and heated in boiling water for 5 mins and then, together with biomarker (Epizymebiotech; 15–250 kDa), were electrophoresed in SDS‐PAGE gels under 80 V voltage until the biomarker reached the end of gels. Next, SDS‐PAGE gels and PVDF membrane were clipped together to perform transmembrane procedure under 350 mA currency for 1 h. Then after incubation with 5% skim milk, TBST, primary antibody and secondary antibody, the PVDF membrane was treated with ECL chemiluminescence solution (Boster Biological Technology #AR1174) and imaged by the imager (Imager 680 Amersham Imager).
# T1 sequence (Q969S8 whole entry): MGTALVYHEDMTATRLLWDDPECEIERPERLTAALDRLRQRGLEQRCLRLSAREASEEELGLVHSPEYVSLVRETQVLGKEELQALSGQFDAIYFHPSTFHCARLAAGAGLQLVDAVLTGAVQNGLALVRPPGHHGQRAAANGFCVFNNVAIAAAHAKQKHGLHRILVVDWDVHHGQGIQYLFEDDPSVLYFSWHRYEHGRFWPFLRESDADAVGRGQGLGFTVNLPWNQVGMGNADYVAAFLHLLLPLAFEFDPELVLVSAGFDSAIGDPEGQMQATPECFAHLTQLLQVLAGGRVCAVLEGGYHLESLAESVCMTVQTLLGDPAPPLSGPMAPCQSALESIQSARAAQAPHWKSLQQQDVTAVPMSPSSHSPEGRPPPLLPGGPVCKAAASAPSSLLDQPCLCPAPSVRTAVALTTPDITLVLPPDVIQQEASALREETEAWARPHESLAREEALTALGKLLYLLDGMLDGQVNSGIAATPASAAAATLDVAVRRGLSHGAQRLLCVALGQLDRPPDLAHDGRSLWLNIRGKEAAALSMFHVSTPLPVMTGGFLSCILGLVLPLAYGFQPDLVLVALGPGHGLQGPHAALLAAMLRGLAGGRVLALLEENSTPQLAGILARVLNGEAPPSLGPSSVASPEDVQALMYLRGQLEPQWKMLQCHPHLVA
smiles,measurement,setting,value
O=C(CCCCCCNC(=O)c1cc(OCCc2ccccc2)c2ccccc2n1)NO [SDFZ-8],IC50,HDAC10,> 10000 nM
same,general health of the mice,"MDA-MB-231 xenograft; MDA-MB-231 xenograft BALB/c-nu mice, 60 mg/kg/day",without adversely affecting the general health of the mice
same,TGI,"MDA-MB-231 xenograft; MDA-MB-231 xenograft, BALB/c-nu mice, 60 mg/kg/day oral gavage, 22 days",76%
same,IC50,HDAC6,3.1 ± 0.5 nM
same,IC50,HDAC2,5.8 ± 1.5 nM
same,EdU positive cells,MDA-MB-231 cells [1],decreased
same,TGI,B16F10 syngeneic model,75%
same,expression level of PD-L1,MC38 cells,increased
same,colony formation of MDA-MB-231,MDA-MB-231 cells [2],significantly inhibited
same,IC50,"HDAC1; Class I, mean ± SD of three",0.4 ± 0.1 nM
same,HDAC1 potency superior to SAHA,HDAC1; versus SAHA,92 fold
same,antiapoptotic protein Bcl-2 expression,MDA-MB-231 cells [3],downregulating
same,levels of cleaved caspase-3 and cleaved PARP,MDA-MB-231 cells [3],increase
same,proapoptotic protein Bax expression,MDA-MB-231 cells [3],upregulated
same,level of acetylated histone H3 (Ac-H3),MDA-MB-231 cells [3]; western blotting,upregulation
same,level of acetylated tubulin (Ac-tubulin),MDA-MB-231 cells [3]; western blotting,upregulation

# Source: paper PMC12627232 (MedComm, 2025)
